From patent EP0520336A2, “Aldehyde derivatives and their use as calpain inhibitors” (FUJIREBIO Inc., priority 1991, dated 1992) come the findings set out here.

Test [1] deals with Calpain. As to the kind of experiment: Measurement of calpain inhibiting effect (casein hydrolysis, IC50 by Probit). In kind it is biochemical, Japanese white rabbit. The conditions noted are these: 30 °C for 30 minutes, pH = 7.5, IC50 by method of Probit. The method, then:
Test Example 1 Measurement of Calpain Inhibiting Effect
Calpain was separated from a skeletal muscle of a Japanese white rabbit and partially purified according to the method of Tsuji and Imahori as described in J.Biochem. 90, 233-240 (1981), whereby the calpain for use in a test for investigating the calpain inhibiting effect (i.e., the inhibitory effect on calpain activity) of the aldehyde compounds according to the present invention was prepared.
The calpain inhibiting effect was measured in accordance with the method of Yoshimura et al. as described in J. Biol. Chem. 258, 8883-8889 (1983).
Each assay mixture was prepared by mixing 0.05 ml of a 4% casein solution, 0.05 ml of a 50 mM cysteine solution, 0.05 ml of a calpain solution, 0.025 ml of purified water, 0.025 ml of a 10% dimethyl sulfoxide solution containing each compound shown in Table 15 and 0.25 ml of a 200 mM imidazole hydrochloric acid buffer solution (pH = 7.5).
The thus prepared assay mixture was preincubated at 30 ° C for 3 minutes. The reaction was started by the addition of 0.05 ml of a 50 mM calcium chloride solution to the above mixture. After the incubation at 30 °C for 30 minutes, the reaction was terminated by the addition of 0.5 ml of 5% trichloroacetic acid.
The amount of a trichloroacetic-acid-soluble protein produced by hydrolysis of casein by calpain was measured by the spectrophotometric analysis in accordance with the method of Ross and Schatz as described in Anal. Biochem. 54, 304-306 (1973), and the absorbance (a) of each sample was measured.
The absorbance (b) of a blank sample which was treated similarly without any of the aldehyde compounds of the present invention, dissolved in a 10% dimethyl sulfoxide solution, was measured.
The inhibition of calpain activity was calculated in accordance with the formula [(b-a)/b] X 100, and the amount of each aldehyde compound necessary to inhibit calpain activity by 50% [IC50] was calculated according to the method of Probit.

In test [2] the test system is Platelet rich plasma (PRP). Put plainly: Measurement of platelet-aggregation inhibiting effect (collagen-induced aggregation in platelet rich plasma). Format: cell-based, Japanese white rabbit. To be noted: collagen-induced aggregation in rabbit PRP, preincubated at 37°C for 5 minutes, IC50 by method of Probit. The method, then:
Test Example 2 Measurement of Platelet-aggregation Inhibiting Effect
Platelet rich plasma (PRP) was prepared and the platelet aggregation was measured in accordance with the method of Born and Cross as described in J. Phystol. 168, 178-195 (1963).
Blood of a Japanese white rabbit was drawn from a carotid artery of the rabbit. 9 parts by volume of the blood were mixed with 1 part by volume of a 3.8% aqueous solution of sodium citrate. The mixture was immediately centrifuged at 200 x g at 20 °C for 15 minutes, and PRP was obtained in the supernate. The number of platelets was calculated by use of an electronic cell counter (MEK-4150 manufactured by Nihon Kohden Kabushiki Kaisha). PRP with 55 X 10^4 or more platelets per 1 µl was employed in the tests.
10 µl of a test solution containing any of the aldehyde compounds of the present invention was added to 200 µl of PRP. The mixture was preincubated at 37°C for 5 minutes. To this mixture, 10 µl of collagen (22 µg/ml) was added to cause the aggregation. The aggregation was measured by Agricometer (NKK, PAT-4A).
In preparing the above test solution, each compound synthesized in the previously mentioned Examples as shown in Table 16 was dissolved in combined dimethyl sulfoxide and polyoxyethylene 60 hardened castor oil in ethanol. The mixture was diluted with an isotonic saline and the final concentration of the dimethyl sulfoxide and polyoxyethylene 60 hardened castor oil contained in the above mixture was adjusted to less than 1 %.
The inhibitory activity of each aldehyde compound on platelet aggregation was expressed by percentages compared with a blank test defined as 100% which was performed without any of the aldehyde compounds.
The amount of each aldehyde compound necessary to inhibit the platelet aggregation by 50% [IC50] was calculated according to the method of Probit.

Setting [3] is: Oryctolagus cuniculus, Platelet.

Where a SMILES comes first, the peptide text is derived from it. [ ]: non-standard residue; d: D form. The star is where a group is joined. ξ: configuration not given here. Cbz = O=C(OCc1ccccc1)*; ξAze = O=C(O)C1CCN1

In turn, `O=C[C@H](Cc1ccccc1)NC(=O)C1CCN(C(=O)OCc2ccccc2)CC1` [1-7, 1-benzyloxycarbonylpiperidine-4-carboxylic acid-(1S)-(1-formyl-2-phenyl)ethylamide] yielded an IC50 in test [1] of 3000 nM.
On the same count and under the same terms, next, `O=C[C@H](Cc1ccccc1)NC(=O)C1CCN(C(=O)CCCc2ccccc2)CC1` [1-26, 1-(4-phenylbutyryl)piperidine-4-carboxylic acid-(1S)-(1-formyl-2-phenyl)ethylamide]: 890 nM; `O=C[C@H](Cc1ccccc1)NC(=O)C1CCN(C(=O)c2ccc3ccccc3c2)CC1` [1-28, 1-(2-naphthoyl)piperidine-4-carboxylic acid-(1S)-(1-formyl-2-phenyl)ethylamide]: 220 nM; `Cc1ccc(S(=O)(=O)N2CCC(C(=O)N[C@H](C=O)Cc3ccccc3)CC2)cc1` [1-30, 1-(4-methylphenylsulfonyl)piperidine-4-carboxylic acid-(1S)-(1-formyl-2-phenyl)ethylamide]: 1100 nM.
The molecule `O=C[C@H](Cc1ccccc1)NC(=O)C1CCN(C(=O)c2cccs2)CC1` [1-32, 1-(2-thienylcarbonyl)piperidine-4-carboxylic acid-(1S)-(1-formyl-2-phenyl)ethylamide] showed an IC50 in test [1] of 2000 nM.
Same read-out and setting: then `O=C[C@H](Cc1ccccc1)NC(=O)C1CCN(S(=O)(=O)c2ccc3ccccc3c2)CC1` [1-34, 1-(2-naphthylsulfonyl)piperidine-4-carboxylic acid-(1S)-(1-formyl-2-phenyl)ethylamide], with 170 nM; and `O=C[C@H](Cc1ccccc1)NC(=O)C1CCN(C(=O)c2ccc(Cl)c(Cl)c2)CC1` [1-36, 1-(3,4-dichlorobenzoyl)piperidine-4-carboxylic acid-(1S)-(1-formyl-2-phenyl)ethylamide], with 780 nM; and `O=C[C@H](Cc1ccccc1)NC(=O)C1CCN(C(=O)C(c2ccccc2)c2ccccc2)CC1` [1-38, 1-(diphenylacetyl)piperidine-4-carboxylic acid-(1S)-(1-formyl-2-phenyl)ethylamide], with 1900 nM.
On the same count and under the same terms, next, `O=C[C@H](Cc1ccccc1)NC(=O)C1CCN(C(=O)C2c3ccccc3-c3ccccc32)CC1` [1-39, 1-(9-fluorenylcarbonyl)piperidine-4-carboxylic acid-(1S)-(1-formyl-2-phenyl)ethylamide]: 2300 nM.
In test [1], `O=C[C@H](Cc1ccccc1)NC(=O)C1CCN(C(=O)Nc2ccccc2)CC1` [1-41, 1-(N-phenylcarbamoyl)piperidine-4-carboxylic acid-(1S)-(1-formyl-2-phenyl)ethylamide] displayed a half-inhibitory concentration (IC50) of 940 nM.
Turning to `O=C[C@H](CCSCc1ccccc1Cl)NC(=O)C1CCN(C(=O)c2ccc3ccccc3c2)CC1` [1-51, 1-(2-naphthoyl)piperidine-4-carboxylic acid-(1S)-[1-formyl-3-(2-chlorobenzylthio)]propylamide], the IC50 in test [1] was found to be 1400 nM; in test [2] (setting [3]), 10000 nM.
Consider `O=C[C@H](CCSCc1ccc(Cl)cc1)NC(=O)C1CCN(C(=O)/C=C/c2ccccc2Cl)CC1` [1-62, 1-(2-chlorocinnamoyl)piperidine-4-carboxylic acid-(1S)-[1-formyl-3-(4-chlorobenzylthio)]-propylamide], for which the figures for the IC50 in test [1] and in test [2] (setting [3]) were 1600 nM and 17000 nM, respectively.
In test [1], `CC(C)C[C@H](OC(=O)Nc1cccc2ccccc12)C(=O)N[C@H](C=O)CCc1ccccc1` [2-13] came in with a concentration for half-maximal inhibition (IC50) of 1230 nM.
Molecule `CSCC[C@@H](C=O)NC(=O)[C@H](CC(C)C)OC(=O)Nc1cccc2ccccc12` [2-14] came in with a concentration for half-maximal inhibition (IC50) in test [1] of 1900 nM.
Molecule `CC(C)C[C@H](OC(=O)Nc1ccccc1)C(=O)N[C@H](C=O)CCSCc1ccc(Cl)cc1` [2-27] came in with a half-inhibitory concentration (IC50) in test [2] (setting [3]) of 65000 nM.
Molecule `CSCC[C@@H](C=O)NC(=O)C1CCN1C(=O)OCc1ccccc1` (stereo partly drawn) [Compound No. 1-1, (2R,2S)-1-benzyloxycarbonyl-azetidine-2-carboxylic acid-(1 S)-(1-formyl-3-methylthio)-propylamide] (Cbz-[ξAze]-Met-aldehyde) showed an IC50 in test [1] of 6600 nM.
On to `O=C[C@H](Cc1ccccc1)NC(=O)C1CCN(C(=O)/C=C/c2ccccc2)CC1` [Compound No. 1-27, 1-cinnamoylpiperidine-4-carboxylic acid-(1S)-(1-formyl-2-phenyl)ethylamide], for which the IC50 in test [1] amounted to 750 nM; in test [2] (setting [3]) it was 2900 nM.
The matching figures for `O=C[C@H](Cc1ccccc1)NC(=O)C1CCN(C(=O)/C=C/c2ccccc2Cl)CC1` [Compound No. 1-42, 1-(2-chlorocinnamoyl)piperidine-4-carboxylic acid-(1S)-(1-formyl-2-phenyl)ethylamide]: 350 nM and 23000 nM.
Turning to `O=C[C@H](Cc1ccccc1)NC(=O)C1CCN(C(=O)/C=C/c2cccc(Cl)c2)CC1` [Compound No. 1-43, 1-(3-chlorocinnamoyl)piperidine-4-carboxylic acid-(1S)-(1-formyl-2-phenyl)ethylamide], the midpoint of inhibition in test [1], the IC50, lay at 560 nM.
As to `O=C[C@H](Cc1ccccc1)NC(=O)C1CCN(C(=O)/C=C/c2ccc(Cl)cc2)CC1` [Compound No. 1-44, 1-(4-chlorocinnamoyl)piperidine-4-carboxylic acid-(1S)-(1-formyl-2-phenyl)ethylamide], the concentration for half-maximal inhibition (IC50) in test [1] came to 990 nM; in test [2] (setting [3]), 47000 nM.
For the molecule `O=C[C@H](Cc1ccccc1F)NC(=O)C1CCN(C(=O)c2ccc3ccccc3c2)CC1` [Compound No. 1-55, 1-(2-naphthoyl)piperidine-4-carboxylic acid-(1S)-[1-formyl-2-(2-fluorophenyl)]ethylamide], in test [1], the IC50 is 630 nM.
On to `O=C[C@H](Cc1c[nH]c2ccccc12)NC(=O)C1CCN(C(=O)/C=C/c2ccccc2Cl)CC1` [Compound No. 1-58, 1-(2-chlorocinnamoyl)piperidine-4-carboxylic acid-(1S)-[1-formyl-2-(3-indolyl)]ethylamide], for which the IC50 turned out to be 680 nM in test [1] and 22000 nM in test [2] (setting [3]).
On the same counts, the results for `O=C[C@H](Cc1ccc(OCc2ccccc2)cc1)NC(=O)C1CCN(C(=O)/C=C/c2ccccc2)CC1` [Compound No. 1-61, 1-cinnamoylpiperidine-4-carboxylic acid-(1S)-[1-formyl-2-(4-benzyloxyphenyl)]ethyl] are 880 nM and 9600 nM.
Molecule `CSCC[C@@H](C=O)NC(=O)[C@H](CC(C)C)OC(=O)Nc1ccccc1` [Compound No. 2-3] showed an IC50 in test [1] of 1600 nM.
Same read-out and setting: next, `CC(C)C[C@H](OC(=O)Nc1ccccc1)C(=O)N[C@H](C=O)CCSCc1ccccc1F` [Compound No. 2-17]: 3600 nM; `CC(C)C[C@H](OC(=O)Nc1cccc2ccccc12)C(=O)N[C@H](C=O)CCSCc1ccccc1F` [Compound No. 2-18]: 580 nM.
`CC(C)C[C@H](OC(=O)Nc1ccccc1)C(=O)N[C@H](C=O)Cc1ccccc1` [Compound No. 2-19]: the IC50 in test [1] amounted to 590 nM; in test [2] (setting [3]), 4200 nM.
For `CC(C)C[C@H](OC(=O)Nc1cccc2ccccc12)C(=O)N[C@H](C=O)Cc1ccccc1` [Compound No. 2-20], in test [1], inhibition was half-maximal at 4400 nM (IC50).
In turn, `CSCC[C@@H](C=O)NC(=O)[C@@H](OC(=O)Nc1ccccc1)C(C)C` [Compound No. 2-21] had an IC50 in test [1] of 2000 nM. This IC50 lies about 2.2-fold lower than the previous one.
Regarding `CSCC[C@@H](C=O)NC(=O)[C@@H](OC(=O)Nc1cccc2ccccc12)C(C)C` [Compound No. 2-22], half-maximal inhibition in test [1] (IC50) was put at 3300 nM.
As to “L-N-benzyloxycarbonylleucine-(2S)-[1-formyl-3-(2-chlorophenyl)thio]propylamide [Compound No. 3-42]”, the half-inhibitory concentration (IC50) in test [1] was determined as 440 nM; in test [2], 94000 nM.

By IC50 is commonly meant the concentration needed to halve the response being measured. A lower IC50 goes with greater potency in that assay.
